Like-named read-outs stand apart in the source and are kept apart here.
Key:
FXIIIa = molecular target: T1, FXIIIa (Homo sapiens, UniProt P00488); test: Fluorescence isopeptidase activity assay (A101 probe), FXIIIa; format: biochemical
T1 construct: purchased Zedira
Procedure: (§1) Selectivity of certain irreversible inhibitors over other members of the transglutaminase family was assessed. […] Inhibitors were tested using a continuous colorimetric assay (Leblanc, A. et al., Biochemistry (2001), 40 (28): 8335-8342) for hTG1 and hTG6 and a commercially available continuous fluorescent assay that utilizes a peptidic FRET quenched substrate (Oertel, K. et al., Anal. Biochem. (2007), 367 (2): 152-158; Király, R. et al., Amino Acids (2016), 48 (1): 31-40) for the other transglutaminases, FXIIIa and hTG3. The rate constant of enzyme inactivation (kobs) for a specific concentration of inhibitor was obtained using Kitz and Wilson conditions (Kitz, R. et al., J. Biol. Chem. (1962), 237: 3245-49). Inhibitor concentrations were adjusted to account for competition with substrates in each enzymatic reaction.
Fluorescence isopeptidase activity assay. The isopeptidase activity of pre-activated TG3a and FXIIIa (purchased from Zedira) was measured via a fluorescence-based assay (Király, R. et al., Amino Acids (2016), 48 (1): 31-40) using the commercially available peptidic FRET quenched probe A101 from Zedira. Briefly, the final concentration in the reaction mixture contained 50 mM Tris (pH 7.0), 10 mM CaCl2, 100 mM NaCl, 2.8 mM TCEP, 50 μM A101 and 14 mM H-Gly-OMe. The reaction was monitored at 25° C. using a BioTek Synergy 4 plate reader (Ex/Em: 318/413 nm).

hTG6 = hTG6 (Homo sapiens, UniProt O95932); test: Colorimetric transamidase activity assay (AL5 substrate), hTG6; format: biochemical
Procedure: as §1
In Vitro Assays. Colorimetric transamidase activity assay.

procaspase 3 = test: Immunoblot of procaspase 3 cleavage, SCC-13 spheroids; format: cell-based, human; conditions: 8 day spheroids, 20 μM
Procedure: In (A), SCC-13 cells (40,000) were plated in non-adherent six well dishes, grown for 8 days in spheroid medium, and then NC9 was added and spheroid number was monitored at 0-48 hours. In (B), spheroids were grown for 10 days, treated for 48 hours with indicated level of NC9 and photographed. In (C), SCC-13 cells were plated at 40,000 cells per well in non-adherent six well dishes and after 10 days the spheroids were treated with 0-20 μM NC9 for 0-72 hours before trypan blue exclusion viability assay. In (D), SCC-13 spheroids were grown for 10 days, treated with 0 or 20 μM NC9 for 48 hours, and TG2 level was assayed by immunoblot. In (E), SCC-13 cells were grown as monolayers in spheroid medium and TG2 activity was monitored by FC incorporation assay as outlined in the Materials and Methods for Example 7. In (F), SCC-13 cell 8 day spheroids were treated with […] NC9 and cells were harvested at the indicated times for immunoblot detection of procaspase 3 and cleaved caspase 3. In all panels, the values are mean±SEM, n=3, p<0.05.

TG2 = molecular target: T2, TG2 (Homo sapiens, UniProt P21980); test: Kinetic inactivation of purified recombinant human TG2, continuous spectrophotometric activity assay (Examples 3, 10); format: biochemical; parameters: made in house
T2 sequence (P21980 1-687): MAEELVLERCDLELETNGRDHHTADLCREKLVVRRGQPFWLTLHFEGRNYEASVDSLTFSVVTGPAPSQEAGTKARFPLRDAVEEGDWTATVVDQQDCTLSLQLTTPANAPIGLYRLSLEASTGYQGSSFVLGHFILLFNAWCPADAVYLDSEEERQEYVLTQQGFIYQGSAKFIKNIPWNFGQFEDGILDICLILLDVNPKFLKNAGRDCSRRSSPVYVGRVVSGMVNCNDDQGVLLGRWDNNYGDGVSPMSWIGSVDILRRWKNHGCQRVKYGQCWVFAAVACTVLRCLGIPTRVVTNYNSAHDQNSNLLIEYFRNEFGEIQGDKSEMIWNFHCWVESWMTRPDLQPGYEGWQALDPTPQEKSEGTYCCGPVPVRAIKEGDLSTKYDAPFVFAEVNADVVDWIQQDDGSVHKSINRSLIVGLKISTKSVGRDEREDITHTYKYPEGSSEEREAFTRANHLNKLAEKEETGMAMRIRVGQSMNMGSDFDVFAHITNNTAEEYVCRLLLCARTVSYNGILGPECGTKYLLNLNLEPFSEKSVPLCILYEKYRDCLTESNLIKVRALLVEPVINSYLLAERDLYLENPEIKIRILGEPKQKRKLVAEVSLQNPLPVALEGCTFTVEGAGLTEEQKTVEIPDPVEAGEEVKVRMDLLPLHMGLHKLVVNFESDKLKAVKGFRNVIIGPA
Procedure: Kinetic studies were carried out in vitro, using purified recombinant human TG2 (Roy, I. et al., Protein Expr. Purif. 87: 41-46, 2013) and a direct, continuous spectrophotometric activity assay (Leblanc, A. et al., Biochemistry 40: 8335-8342, 2001).
Kinetics. Kinetic runs were performed at 25° C. in 100 mM MOPS buffer (pH 7.0) containing 3 mM CaCl2 and 50 μM EDTA. […] Stock solutions of the substrate and inhibitors were prepared in DMF such that the final concentration of this co-solvent was constant at 10% v/v. Reactions were initiated with the addition of enzyme with an activity of approximately 0.05 U/mL. Kinetic evaluation was carried out by the method of Stone and Hofsteenge (Stone, S. R. and Hofsteenge, J., Biochem. J. 230: 497-502, 1985). […] Observed first-order rate constants of inactivation were determined from non-linear regression, to a mono-exponential model. These rate constants were in turn fit to equation 1 by non-linear regression, providing the kinetic parameters
Kinetic parameters were determined as described above.

[1] = Table 9, Kitz and Wilson conditions

hTG6, sequence (O95932 whole entry): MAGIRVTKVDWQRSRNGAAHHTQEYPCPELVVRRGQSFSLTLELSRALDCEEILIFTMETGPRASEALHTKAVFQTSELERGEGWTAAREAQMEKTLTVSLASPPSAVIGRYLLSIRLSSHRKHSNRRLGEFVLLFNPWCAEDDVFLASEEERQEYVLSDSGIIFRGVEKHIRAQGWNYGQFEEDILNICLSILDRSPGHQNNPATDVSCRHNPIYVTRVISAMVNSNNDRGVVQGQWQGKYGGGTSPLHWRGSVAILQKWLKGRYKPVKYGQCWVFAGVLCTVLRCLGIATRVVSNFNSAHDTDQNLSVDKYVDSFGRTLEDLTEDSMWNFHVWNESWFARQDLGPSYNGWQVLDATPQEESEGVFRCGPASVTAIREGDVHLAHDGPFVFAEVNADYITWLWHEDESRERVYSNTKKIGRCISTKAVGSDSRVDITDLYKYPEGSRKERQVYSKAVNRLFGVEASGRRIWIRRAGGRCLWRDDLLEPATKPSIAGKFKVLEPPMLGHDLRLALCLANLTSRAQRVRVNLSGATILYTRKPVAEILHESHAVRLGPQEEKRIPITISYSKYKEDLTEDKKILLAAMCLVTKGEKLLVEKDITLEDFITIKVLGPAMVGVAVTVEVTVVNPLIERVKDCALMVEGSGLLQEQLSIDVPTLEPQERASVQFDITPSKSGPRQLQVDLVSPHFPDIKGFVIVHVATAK
T1 sequence (P00488 39-732 limits assumed): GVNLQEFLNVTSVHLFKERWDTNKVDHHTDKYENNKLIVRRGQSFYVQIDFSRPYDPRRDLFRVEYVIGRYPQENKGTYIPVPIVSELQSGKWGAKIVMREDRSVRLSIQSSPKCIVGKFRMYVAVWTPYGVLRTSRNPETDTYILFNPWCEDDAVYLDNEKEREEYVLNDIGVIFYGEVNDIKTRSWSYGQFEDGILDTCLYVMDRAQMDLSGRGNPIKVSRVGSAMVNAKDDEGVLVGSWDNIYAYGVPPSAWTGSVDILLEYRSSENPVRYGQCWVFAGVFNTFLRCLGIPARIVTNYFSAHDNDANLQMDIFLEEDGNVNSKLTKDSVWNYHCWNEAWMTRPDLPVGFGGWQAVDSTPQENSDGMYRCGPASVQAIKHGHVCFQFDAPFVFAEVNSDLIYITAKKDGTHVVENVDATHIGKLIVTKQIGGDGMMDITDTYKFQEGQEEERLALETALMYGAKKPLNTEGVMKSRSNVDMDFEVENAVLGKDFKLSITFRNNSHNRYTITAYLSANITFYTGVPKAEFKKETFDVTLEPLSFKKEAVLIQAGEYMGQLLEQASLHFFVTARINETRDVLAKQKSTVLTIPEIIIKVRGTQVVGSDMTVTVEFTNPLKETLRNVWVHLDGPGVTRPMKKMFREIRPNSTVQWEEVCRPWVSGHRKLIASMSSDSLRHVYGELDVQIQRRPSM

## C=CC(=O)NCCCC[C@H](NC(=O)OCc1ccccc1)C(=O)NCCOCCOCCNS(=O)(=O)c1cccc2c(N(C)C)cccc12 [NC9]
FXIIIa; [1]
  kobs (10^−3 min^−1), FXIIIa: 5.91 ± 1.59 10^−3 min^−1
hTG6; [1]
  kobs (10^−3 min^−1), TG6: 6.16 ± 0.14 10^−3 min^−1
Procaspase 3
  time to initiation of procaspase 3 cleavage after addition: ≤ 1 h

## C=CC(=O)NCCCC[C@H](NC(=O)OCc1ccccc1)C(=O)N1CCN(S(=O)(=O)c2cccc3c(N(C)C)cccc23)CC1 [VA4, (S)-benzyl(6-acrylamido-1-(4-((5-(dimethylamino)naphthalen-1-yl)sulfonyl)piperazin-1-yl)-1-oxohexan-2-yl)carbamate]
FXIIIa; from kobs
  less reactive with FXIIIa compared to hTG2: 80 fold
hTG6
  inhibition of hTG6: no inhibition was observed

## C=CC(=O)NCCCC[C@H](NC(=O)OCc1ccccc1)C(=O)N1CCN(C(=O)c2cc3ccc(O)cc3oc2=O)CC1 [VA5, (S)-Benzyl(6-acrylamido-1-(4-(7-hydroxy-2-oxo-2H-chromene-3-carbonyl)piperazin-1-yl)-1-oxohexan-2-yl)carbamate]
TG2; Table 4
  kinact: 0.0116 s⁻¹
TG2; read-out: kinact/KI (?M^−1min^−1), Table 1
  kinact/KI: 130000 M⁻¹ min⁻¹
TG2; read-out: kinact/Ki (μM^−1 min^−1), Table 4, for ^a no saturation observed, efficiency obtained from initial slope
  kinact/KI: 165000 M⁻¹ min⁻¹

From patent publication US10894777B2, “TG2 inhibitor piperazine compounds and uses thereof” (UNIVERSITY OF OTTAWA, priority 2016, dated 2021)
